Data published in ChEMBL document CHEMBL3885861, “Open TG-GATES”.

Species on record: Rattus norvegicus
Assay: Open TG-GATES - Regimen: Daily Repeat
Assay type: toxicity, organism-based, Sprague-Dawley
Parameters: regimen Daily Repeat, gender Male, age 6 weeks
Details: in vivo, po, 10 mg/kg, route gavage, dose level Middle; for APTT / Bas / Eos / Fbg / Hb / Ht / Lym / MCH / MCHC / MCV / Mono / Neu / PT / Plat / RBC / Ret / WBC: tissue Blood; for KIDNEY_L / KIDNEY_R / KIDNEY_TOTAL: tissue Kidney; for LIVER: tissue Liver; for A/G / ALP / ALT / AST / BUN / CRE / Ca / Cl / DBIL / GLC / IP / K / LDH / Na / PL / RALB / TBIL / TC / TG / TP / gamma-GTP: tissue Plasma

C=CCO [ALLYL ALCOHOL]
TERMINAL_BW (72 h, time 3 day): 233.1 g
APTT (72 h, time 3 day): 20.8 s
Bas (72 h, time 3 day): 0%
Eos (72 h, time 3 day): 0.6%
Fbg (72 h, time 3 day): 233.2 mg/dL
Hb (72 h, time 3 day): 13.9 g/dL
Ht (72 h, time 3 day): 40.8%
Lym (72 h, time 3 day): 77.4%
MCH (72 h, time 3 day): 20.6 pg
MCHC (72 h, time 3 day): 33.9%
MCV (72 h, time 3 day): 60.7 fL
Mono (72 h, time 3 day): 3.6%
Neu (72 h, time 3 day): 17.8%
PT (72 h, time 3 day): 11.7 s
Plat (72 h, time 3 day): 133.2 x10_4/uL
RBC (72 h, time 3 day): 672.8 x10_4/ul
Ret (72 h, time 3 day): 5.1%
WBC (72 h, time 3 day): 116 x10_2/uL
KIDNEY_L (72 h, time 3 day): 1 g
KIDNEY_R (72 h, time 3 day): 1 g
KIDNEY_TOTAL (72 h, time 3 day): 2.1 g
LIVER (72 h, time 3 day): 11.2 g
A/G (72 h, time 3 day): 1.6
ALP (72 h, time 3 day): 921.4 IU/L
ALT (72 h, time 3 day): 35.2 IU/L
AST (72 h, time 3 day): 67.6 IU/L
BUN (72 h, time 3 day): 14 mg/dL
CRE (72 h, time 3 day): 0.4 mg/dL
Ca (72 h, time 3 day): 10.7 mg/dL
Cl (72 h, time 3 day): 103 meq/L
DBIL (72 h, time 3 day): 0.066 mg/dL
GLC (72 h, time 3 day): 207.8 mg/dL
IP (72 h, time 3 day): 6.6 mg/dL
K (72 h, time 3 day): 3.9 meq/L
LDH (72 h, time 3 day): 226 IU/L
Na (72 h, time 3 day): 140.2 meq/L
PL (72 h, time 3 day): 142 mg/dL
RALB (72 h, time 3 day): 3.3 g/dL
TBIL (72 h, time 3 day): 0.1 mg/dL
TC (72 h, time 3 day): 78 mg/dL
TG (72 h, time 3 day): 78 mg/dL
TP (72 h, time 3 day): 5.3 g/dL
gamma-GTP (72 h, time 3 day): 1 IU/L
TERMINAL_BW ([…], time 7 day): 267.6 g
TERMINAL_BW ([…], time 14 day): 329.3 g
TERMINAL_BW ([…], time 28 day): 403.7 g
APTT ([…], time 7 day): 18.2 s
Bas ([…], time 7 day): 0%
Eos ([…], time 7 day): 0.8%
Fbg ([…], time 7 day): 219 mg/dL
Hb ([…], time 7 day): 13.5 g/dL
Ht ([…], time 7 day): 39.7%
Lym ([…], time 7 day): 82.6%
MCH ([…], time 7 day): 20.5 pg
MCHC ([…], time 7 day): 34%
MCV ([…], time 7 day): 60.2 fL
Mono ([…], time 7 day): 2.6%
Neu ([…], time 7 day): 13.4%
PT ([…], time 7 day): 12 s
Plat ([…], time 7 day): 137.3 x10_4/uL
RBC ([…], time 7 day): 661 x10_4/ul
Ret ([…], time 7 day): 4.5%
WBC ([…], time 7 day): 128.8 x10_2/uL
APTT ([…], time 14 day): 19.2 s
Bas ([…], time 14 day): 0%
Eos ([…], time 14 day): 1%
Fbg ([…], time 14 day): 225.8 mg/dL
Hb ([…], time 14 day): 14.3 g/dL
Ht ([…], time 14 day): 41.2%
Lym ([…], time 14 day): 77.8%
MCH ([…], time 14 day): 20.4 pg
MCHC ([…], time 14 day): 34.7%
MCV ([…], time 14 day): 58.8 fL
Mono ([…], time 14 day): 3%
Neu ([…], time 14 day): 17.8%
PT ([…], time 14 day): 11.8 s
Plat ([…], time 14 day): 134 x10_4/uL
RBC ([…], time 14 day): 700.4 x10_4/ul
Ret ([…], time 14 day): 4.5%
WBC ([…], time 14 day): 123.8 x10_2/uL
APTT ([…], time 28 day): 20 s
Bas ([…], time 28 day): 0%
Eos ([…], time 28 day): 1%
Fbg ([…], time 28 day): 225.2 mg/dL
Hb ([…], time 28 day): 15.2 g/dL
Ht ([…], time 28 day): 44%
Lym ([…], time 28 day): 80.8%
MCH ([…], time 28 day): 19.6 pg
MCHC ([…], time 28 day): 34.5%
MCV ([…], time 28 day): 57 fL
Mono ([…], time 28 day): 1.6%
Neu ([…], time 28 day): 15.6%
PT ([…], time 28 day): 12 s
Plat ([…], time 28 day): 108.6 x10_4/uL
RBC ([…], time 28 day): 772.6 x10_4/ul
Ret ([…], time 28 day): 3%
WBC ([…], time 28 day): 116.6 x10_2/uL
KIDNEY_L ([…], time 7 day): 1.1 g
KIDNEY_R ([…], time 7 day): 1.1 g
KIDNEY_TOTAL ([…], time 7 day): 2.2 g
KIDNEY_L ([…], time 14 day): 1.3 g
KIDNEY_R ([…], time 14 day): 1.3 g
KIDNEY_TOTAL ([…], time 14 day): 2.6 g
KIDNEY_L ([…], time 28 day): 1.4 g
KIDNEY_R ([…], time 28 day): 1.4 g
KIDNEY_TOTAL ([…], time 28 day): 2.8 g
LIVER ([…], time 7 day): 12.3 g
LIVER ([…], time 14 day): 15 g
LIVER ([…], time 28 day): 17.1 g
A/G ([…], time 7 day): 1.5
ALP ([…], time 7 day): 970.4 IU/L
ALT ([…], time 7 day): 36 IU/L
AST ([…], time 7 day): 66 IU/L
BUN ([…], time 7 day): 14.4 mg/dL
CRE ([…], time 7 day): 0.4 mg/dL
Ca ([…], time 7 day): 10.8 mg/dL
Cl ([…], time 7 day): 102.2 meq/L
DBIL ([…], time 7 day): 0.06 mg/dL
GLC ([…], time 7 day): 202.6 mg/dL
IP ([…], time 7 day): 6.7 mg/dL
K ([…], time 7 day): 3.8 meq/L
LDH ([…], time 7 day): 205.8 IU/L
Na ([…], time 7 day): 140.8 meq/L
PL ([…], time 7 day): 143.4 mg/dL
RALB ([…], time 7 day): 3.3 g/dL
TBIL ([…], time 7 day): 0.1 mg/dL
TC ([…], time 7 day): 73.8 mg/dL
TG ([…], time 7 day): 75.6 mg/dL
TP ([…], time 7 day): 5.5 g/dL
gamma-GTP ([…], time 7 day): 0.8 IU/L
A/G ([…], time 14 day): 1.4
ALP ([…], time 14 day): 736 IU/L
ALT ([…], time 14 day): 33.8 IU/L
AST ([…], time 14 day): 59.6 IU/L
BUN ([…], time 14 day): 15.8 mg/dL
CRE ([…], time 14 day): 0.4 mg/dL
Ca ([…], time 14 day): 10.7 mg/dL
Cl ([…], time 14 day): 100.8 meq/L
DBIL ([…], time 14 day): 0.076 mg/dL
GLC ([…], time 14 day): 232.4 mg/dL
IP ([…], time 14 day): 6.6 mg/dL
K ([…], time 14 day): 3.5 meq/L
LDH ([…], time 14 day): 211.4 IU/L
Na ([…], time 14 day): 139.8 meq/L
PL ([…], time 14 day): 148.8 mg/dL
RALB ([…], time 14 day): 3.3 g/dL
TBIL ([…], time 14 day): 0.1 mg/dL
TC ([…], time 14 day): 74 mg/dL
TG ([…], time 14 day): 110.4 mg/dL
TP ([…], time 14 day): 5.7 g/dL
gamma-GTP ([…], time 14 day): 1 IU/L
A/G ([…], time 28 day): 1.4
ALP ([…], time 28 day): 568 IU/L
ALT ([…], time 28 day): 33.6 IU/L
AST ([…], time 28 day): 60.2 IU/L
BUN ([…], time 28 day): 15.6 mg/dL
CRE ([…], time 28 day): 0.5 mg/dL
Ca ([…], time 28 day): 10.7 mg/dL
Cl ([…], time 28 day): 102.6 meq/L
DBIL ([…], time 28 day): 0.084 mg/dL
GLC ([…], time 28 day): 221 mg/dL
IP ([…], time 28 day): 6 mg/dL
K ([…], time 28 day): 3.6 meq/L
LDH ([…], time 28 day): 205.2 IU/L
Na ([…], time 28 day): 140.6 meq/L
PL ([…], time 28 day): 142.4 mg/dL
RALB ([…], time 28 day): 3.6 g/dL
TBIL ([…], time 28 day): 0.1 mg/dL
TC ([…], time 28 day): 70.8 mg/dL
TG ([…], time 28 day): 104.6 mg/dL
TP ([…], time 28 day): 6.2 g/dL
gamma-GTP ([…], time 28 day): 1 IU/L
